In US8067424B2, “Selective inhibitors for cyclin-dependent kinases” (Emory University, priority 2007, dated 2011):
Like-named read-outs stand apart in the source and are kept apart here.

Experiments:
MCF-7 tumors = experiment: MCF-7 tumor growth in nude mice, BS-181 i.p.; type: in vivo, nu/nu-BALB/c athymic nude mice; conditions: i.p. twice daily, 14 days
Description: This example illustrates that BS-181 is capable of inhibiting MCF-7 tumor growth in nude mice. The following protocol was used in these mouse xenograft experiments. Female, 7-week-old, nu/nu-BALB/c athymic nude mice were purchased from Harlan Olac Ltd. The animals were housed in isolated ventilator cages (IVC) in a 12-h light/dark cycle. The animals received sterilized water and sterile rodent food ad libitum. All procedures were approved by the CBS, Imperial College London Ethics Committee and were covered by a Government Home Office project license for these specific studies. Before inoculation of animal with cells, a 0.72 mg 17β Estradiol 60-day release pellet was implanted subcutaneously (Innovative Research of America, USA). For insertion, animals were anaesthetised, an incision was made to the flank of the animals under aseptic conditions and pellets were implanted. The wound was closed with stainless steel sutures. MCF-7 cells (5×10^6 cells) were injected subcutaneously in not more than 0.1 ml volume into the flank of the animals. Tumor measurements were performed twice per week, and volumes were calculated using the formula ½ [length (mm)]×[width (mm)]^2. […] Throughout the 14-day treatment period animal weights were determined each day and tumor volume every 48 hours.

AURORA B = AURORA B (Homo sapiens, UniProt Q96GD4); experiment: Kinase screen: Aurora B assay; type: biochemical; conditions: read-out: Mean Remaining Enzyme Activity (%)
AURORA B, sequence (Q96GD4 whole entry): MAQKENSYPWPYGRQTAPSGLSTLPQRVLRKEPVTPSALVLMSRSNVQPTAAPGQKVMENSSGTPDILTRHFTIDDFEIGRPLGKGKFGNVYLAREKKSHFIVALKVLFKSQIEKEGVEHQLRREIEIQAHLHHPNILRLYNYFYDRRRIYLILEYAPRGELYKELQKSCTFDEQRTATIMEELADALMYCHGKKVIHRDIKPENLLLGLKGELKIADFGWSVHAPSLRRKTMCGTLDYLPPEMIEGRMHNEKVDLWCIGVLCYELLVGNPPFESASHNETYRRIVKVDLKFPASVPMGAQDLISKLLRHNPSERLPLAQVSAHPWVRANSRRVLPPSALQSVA
Description: Generally, the same procedure was used for all assays. Since the total assay volume was 25.5 microliters, 0.5 microliters of inhibitors at 51× assay concentration were added to the plates before any other addition.
The basic procedure was to add 0.5 microliters inhibitor/control in DMSO to plate. Fifteen microliters of enzyme/substrate/buffer mix were added and incubated for 5 min. Ten microliters MgATP at the relevant concentration were added and incubated for 30 min. The assay was stopped by adding 5 microliters of 3% orthophosphoric acid. The assay was transferred to a p81 filter plate and read in a scintillation counter of 30 sec/well. Note that this assay procedure was not followed for MKK1, which instead involved a two-step assay, and PKC alpha, which required the addition of lipid vesicles.
Aurora B assay: Aurora B (5-20 mU diluted in 50 mM Tris pH 7.5, 0.1 mM EGTA, 0.1% b-mercaptoethanol, 1 mg/ml BSA) was assayed against a substrate peptide ([…]) (SEQ ID NO: 26) in a final volume of […] containing 50 mM Tris pH 7.5, 0.05% b-mercaptoethanol, 300 μM substrate peptide, 10 mM magnesium acetate and 0.02 mM [33P-g-ATP] (50-1000 cpm/pmole) and incubated for 30 min at room temperature. Assays were stopped by addition of 5 μl of 0.5 M (3%) orthophosphoric acid and then harvested onto P81 Unifilter plates with a wash buffer of 50 mM orthophosphoric acid.

SN12C = conditions: for Mean Optical Densities / Percent Growth: SN12C
CCRF-CEM = conditions: for Mean Optical Densities / Percent Growth: CCRF-CEM
NCI-H522 = experiment: cells; conditions: Homo sapiens
HT29 = experiment: cells; conditions: Homo sapiens
SNB-19 = experiment: cells; conditions: Homo sapiens
EKVX = conditions: for Mean Optical Densities / Percent Growth: EKVX
[1] = TK-10, log10 concentration −4.0
[2] = TK-10, log10 concentration −5.0
[3] = TK-10, log10 concentration −6.0
[4] = TK-10, log10 concentration −7.0
[5] = TK-10, log10 concentration −8.0
[6] = SF-268, log10 concentration −4.0
[7] = SF-268, log10 concentration −5.0
[8] = SF-268, log10 concentration −6.0
[9] = SF-268, log10 concentration −7.0
[10] = SF-268, log10 concentration −8.0

Structure (SMILES): CC(C)c1cnn2c(NCc3ccccc3)cc(NCCCCCCCN)nc12 [BS-181]
- Change in animal weight (MCF-7 tumors): nearly constant
- Increase in tumor volume relative to day one (MCF-7 tumors; different doses): increased more slowly with increasing dosage
- remaining activity at 10 µM (AURORA B): 95%

Structure (SMILES): CC(C)c1cnn2c(NCc3ccccc3)cc(N[C@@H](CO)[C@H](O)CO)nc12 [ICEC0318, (3S)-3-(7-(Benzylamino)-3-isopropylpyrazolo[1,5-a]pyrimidin-5-ylamino)butane-1,2,4-triol]
- TGI (SN12C; SN12C (Renal Cancer)): >1.00E−4
- Mean Optical Densities (SN12C; log10 concentration −4.0): 0.531
- Percent Growth (SN12C; log10 concentration −4.0): 11%
- Mean Optical Densities (SN12C; log10 concentration −5.0): 0.578
- Percent Growth (SN12C; log10 concentration −5.0): 14%
- Mean Optical Densities (SN12C; log10 concentration −6.0): 0.620
- Percent Growth (SN12C; log10 concentration −6.0): 18%
- Mean Optical Densities (SN12C; log10 concentration −7.0): 1.515
- Percent Growth (SN12C; log10 concentration −7.0): 84%
- Mean Optical Densities (SN12C; log10 concentration −8.0): 1.702
- Percent Growth (SN12C; log10 concentration −8.0): 98%
- TGI (TK-10; TK-10 (Renal Cancer)): >1.00E−4
- Mean Optical Densities (TK-10; [1]): 0.610
- Percent Growth (TK-10; [1]): 18%
- Mean Optical Densities (TK-10; [2]): 0.593
- Percent Growth (TK-10; [2]): 15%
- Mean Optical Densities (TK-10; [3]): 0.572
- Percent Growth (TK-10; [3]): 12%
- Mean Optical Densities (TK-10; [4]): 1.192
- Percent Growth (TK-10; [4]): 101%
- Mean Optical Densities (TK-10; [5]): 1.202
- Percent Growth (TK-10; [5]): 103%
- TGI (M14; M14 (Melanoma)): 1.00E−6
- Mean Optical Densities (M14; M14, log10 concentration −4.0): 0.125
- Percent Growth (M14; M14, log10 concentration −4.0): −62%
- Mean Optical Densities (M14; M14, log10 concentration −5.0): 0.246
- Percent Growth (M14; M14, log10 concentration −5.0): −26%
- Mean Optical Densities (M14; M14, log10 concentration −6.0): 0.333
- Mean Optical Densities (M14; M14, log10 concentration −7.0): 1.032
- Percent Growth (M14; M14, log10 concentration −7.0): 97%
- Mean Optical Densities (M14; M14, log10 concentration −8.0): 1.074
- Percent Growth (M14; M14, log10 concentration −8.0): 103%
- TGI (CCRF-CEM; CCRF-CEM (Leukemia)): >1.00E−4
- Mean Optical Densities (CCRF-CEM; log10 concentration −4.0): 0.227
- Percent Growth (CCRF-CEM; log10 concentration −4.0): 11%
- Mean Optical Densities (CCRF-CEM; log10 concentration −5.0): 0.330
- Percent Growth (CCRF-CEM; log10 concentration −5.0): 33%
- Mean Optical Densities (CCRF-CEM; log10 concentration −6.0): 0.279
- Percent Growth (CCRF-CEM; log10 concentration −6.0): 22%
- Mean Optical Densities (CCRF-CEM; log10 concentration −7.0): 0.565
- Percent Growth (CCRF-CEM; log10 concentration −7.0): 82%
- Mean Optical Densities (CCRF-CEM; log10 concentration −8.0): 0.769
- Percent Growth (CCRF-CEM; log10 concentration −8.0): 125%
- GI50 (NCI-H522; NCI-H522): 375 nM
- CC50 (NCI-H522; NCI-H522, read-out: LC50): > 100000 nM
- GI50 (HT29; HT-29): 336 nM
- CC50 (HT29; HT-29, read-out: LC50): > 100000 nM
- GI50 (SNB-19; SNB-19): 283 nM
- CC50 (SNB-19; SNB-19, read-out: LC50): > 100000 nM
- TGI (SF-268; SF-268 (CNS Cancer)): 3.12E−5
- Mean Optical Densities (SF-268; [6]): 0.404
- Percent Growth (SF-268; [6]): −5%
- Mean Optical Densities (SF-268; [7]): 0.460
- Percent Growth (SF-268; [7]): 5%
- Mean Optical Densities (SF-268; [8]): 0.452
- Percent Growth (SF-268; [8]): 4%
- Mean Optical Densities (SF-268; [9]): 1.234
- Percent Growth (SF-268; [9]): 99%
- Mean Optical Densities (SF-268; [10]): 1.291
- Percent Growth (SF-268; [10]): 106%
- TGI (EKVX; EKVX (Non-Small Cell Lung Cancer)): >1.00E−4
- Mean Optical Densities (EKVX; log10 concentration −4.0): 0.740
- Percent Growth (EKVX; log10 concentration −4.0): 4%
- Mean Optical Densities (EKVX; log10 concentration −5.0): 0.817
- Percent Growth (EKVX; log10 concentration −5.0): 9%
- Mean Optical Densities (EKVX; log10 concentration −6.0): 0.841
- Percent Growth (EKVX; log10 concentration −6.0): 11%
- Mean Optical Densities (EKVX; log10 concentration −7.0): 1.830
- Percent Growth (EKVX; log10 concentration −7.0): 83%
- Mean Optical Densities (EKVX; log10 concentration −8.0): 2.035
- Percent Growth (EKVX; log10 concentration −8.0): 98%
